Assays:
Format in all cases: biochemical
GSK3b = biological target: T1, GSK3b (Homo sapiens, UniProt P49841); experiment: Desktop Profiler kinase panel, GSK3b; details: 10 micromolar concentration of the compound; read-out: Percent Inhibition GSK3b
T1 construct: purchased Caliper Life Sciences
Experimental: (§1) The Aurora assays described here are performed on two Caliper Life Sciences systems: the LC3000 and the Desktop Profiler. These provide data on enzyme activity via measurement of the relative amounts of phosphorylated or unphosphorylated fluorescently labelled substrate peptide at the end of an enzymatic reaction. These different states of peptide are resolved by applying a potential difference across the sample. The presence of the charged phosphate group on the product (as opposed to the substrate) causes a different peptide mobility between the two peptides. This is visualized by excitation of the fluorescent label on the substrate and product peptides and represented as peaks within the analysis software.
(§2) The Desktop Profiler utilizes the same principle as the LC3000 for calculating percentage conversion of a substrate to product. Caliper Life Sciences provides proprietary flash frozen pre-made 384 well plates containing selected kinases. Each column in the 384 well plate contains a particular selected kinase. A second plate, the ‘substrate plate’ contains a mix of fluorescently labeled peptide substrate and ATP. These are arranged in columns so that transfer for substrate plate to enzyme plate provides the correct enzyme with the correct substrate/ATP concentration. Compounds are added to a thawed enzyme plate in the desired format, in single concentrations. Reactions are initiated by transfer of the substrate/ATP mix from the substrate plate. The enzyme plate is incubated for 90 mins at 25 C. The reaction is stopped by addition of 70 ul of Stop Buffer (100 mM HEPES pH 7.5, 0.015% Brij-35, 10 mM EDTA (Sigma, E7889)).
(§3) Reading of the plate in the Profiler is identical to the LC3000, and the ratio between substrate and product peaks provides the activity of the enzyme in that well. This is best represented by a plate heat map which colors each well by percent inhibition as compared to positive and negative controls (no inhibitors and no ATP respectively).
(§4) In the following Tables 3a-4-b, which show the results of the desktop profiler measurements, “+” means 50-70% inhibition, “++” means 70-90% inhibition, and “+++” means >90% inhibition. The enzymes tested for profiling were ABL, AKT1, AKT2, AurA, CHK1, CHK2, CK1d, Erk1, Erk2, FYN, GSK3b, INSR, LCK, LYN, MAPKAPK2, MET, MSK1, p38a, PKA, PKCz, PKD2, PRAK, RSK1 and SRC.

AKT2 = biological target: T2, AKT2 (Homo sapiens, UniProt P31751); experiment: Desktop Profiler kinase panel, AKT2; details: 10 micromolar concentration of the compound; read-out: Percent Inhibition AKT2
T2 construct: purchased Caliper Life Sciences
T2 sequence (P31751 whole entry, species assumed): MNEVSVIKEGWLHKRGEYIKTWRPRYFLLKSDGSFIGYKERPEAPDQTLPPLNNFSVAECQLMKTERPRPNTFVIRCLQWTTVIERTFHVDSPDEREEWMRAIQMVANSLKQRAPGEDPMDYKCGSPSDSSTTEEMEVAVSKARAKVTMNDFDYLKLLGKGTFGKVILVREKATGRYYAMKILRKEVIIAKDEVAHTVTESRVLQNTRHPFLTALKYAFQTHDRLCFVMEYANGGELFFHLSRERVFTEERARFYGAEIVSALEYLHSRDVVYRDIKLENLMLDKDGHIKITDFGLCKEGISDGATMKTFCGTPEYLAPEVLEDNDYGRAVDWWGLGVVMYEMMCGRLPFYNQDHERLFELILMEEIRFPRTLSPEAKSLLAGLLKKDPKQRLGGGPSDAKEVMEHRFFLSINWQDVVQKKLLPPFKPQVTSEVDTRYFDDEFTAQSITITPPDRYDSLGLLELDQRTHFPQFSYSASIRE
Experimental: as §1, §2, §3, §4

FYN = biological target: T3, FYN (Homo sapiens, UniProt P06241); experiment: Desktop Profiler kinase panel, FYN; details: 10 micromolar concentration of the compound; read-out: Percent Inhibition FYN
T3 construct: purchased Caliper Life Sciences
T3 sequence (P06241 whole entry, species assumed): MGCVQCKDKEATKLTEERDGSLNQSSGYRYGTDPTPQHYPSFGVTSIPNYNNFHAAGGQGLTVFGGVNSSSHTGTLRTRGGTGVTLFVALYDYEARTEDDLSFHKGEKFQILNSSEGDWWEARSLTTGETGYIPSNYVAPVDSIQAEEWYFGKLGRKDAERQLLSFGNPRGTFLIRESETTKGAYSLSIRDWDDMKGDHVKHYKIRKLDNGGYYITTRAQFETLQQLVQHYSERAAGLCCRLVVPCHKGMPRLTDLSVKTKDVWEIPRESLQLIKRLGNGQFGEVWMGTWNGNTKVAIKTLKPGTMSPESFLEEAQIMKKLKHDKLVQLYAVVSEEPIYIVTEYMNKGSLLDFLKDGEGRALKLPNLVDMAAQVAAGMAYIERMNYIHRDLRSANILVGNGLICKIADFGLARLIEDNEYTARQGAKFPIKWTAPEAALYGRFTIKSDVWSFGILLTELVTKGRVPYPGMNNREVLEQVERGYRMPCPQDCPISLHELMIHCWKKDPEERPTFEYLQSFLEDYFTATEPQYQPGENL
Experimental: as §1, §2, §3, §4

PKD2 = biological target: T4, PKD2 (Homo sapiens, UniProt Q9BZL6); experiment: Desktop Profiler kinase panel, PKD2; details: 10 micromolar concentration of the compound; read-out: Percent Inhibition PKD2
T4 construct: purchased Caliper Life Sciences
T4 sequence (Q9BZL6 1-878): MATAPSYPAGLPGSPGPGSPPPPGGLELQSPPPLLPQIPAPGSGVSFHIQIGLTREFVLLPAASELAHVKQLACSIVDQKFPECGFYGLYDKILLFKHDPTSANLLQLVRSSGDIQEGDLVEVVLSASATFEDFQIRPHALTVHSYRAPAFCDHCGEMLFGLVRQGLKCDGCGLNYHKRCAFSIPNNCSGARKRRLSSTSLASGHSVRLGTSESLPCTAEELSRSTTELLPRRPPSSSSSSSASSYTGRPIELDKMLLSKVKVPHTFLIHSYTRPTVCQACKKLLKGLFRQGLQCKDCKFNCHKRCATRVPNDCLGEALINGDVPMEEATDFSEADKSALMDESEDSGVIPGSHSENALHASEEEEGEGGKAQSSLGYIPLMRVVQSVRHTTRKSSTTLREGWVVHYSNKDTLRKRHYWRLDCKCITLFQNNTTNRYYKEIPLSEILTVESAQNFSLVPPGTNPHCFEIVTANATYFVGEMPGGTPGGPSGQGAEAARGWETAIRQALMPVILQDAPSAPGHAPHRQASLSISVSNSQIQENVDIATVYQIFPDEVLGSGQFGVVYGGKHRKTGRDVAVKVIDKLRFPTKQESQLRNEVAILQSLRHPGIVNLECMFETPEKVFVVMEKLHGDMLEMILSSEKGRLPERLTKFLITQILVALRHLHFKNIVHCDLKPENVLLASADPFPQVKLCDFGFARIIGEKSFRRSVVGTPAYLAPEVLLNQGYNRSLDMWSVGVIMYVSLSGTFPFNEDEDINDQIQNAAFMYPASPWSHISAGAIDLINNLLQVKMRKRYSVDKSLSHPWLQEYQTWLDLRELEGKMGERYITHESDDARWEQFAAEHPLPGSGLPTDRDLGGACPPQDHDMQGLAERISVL
Experimental: as §1, §2, §3, §4

PKA = biological target: T5, PKA (Homo sapiens, UniProt P17612); experiment: Desktop Profiler kinase panel, PKA; details: 10 micromolar concentration of the compound; read-out: Percent Inhibition PKA
T5 construct: purchased Caliper Life Sciences
Experimental: as §1, §2, §3, §4

AurA = biological target: T6, AurA (Homo sapiens, UniProt O14965); experiment: Desktop Profiler kinase panel, AurA; details: 10 micromolar concentration of the compound; read-out: Percent Inhibition AurA
T6 construct: purchased Caliper Life Sciences
T6 sequence (O14965 1-403): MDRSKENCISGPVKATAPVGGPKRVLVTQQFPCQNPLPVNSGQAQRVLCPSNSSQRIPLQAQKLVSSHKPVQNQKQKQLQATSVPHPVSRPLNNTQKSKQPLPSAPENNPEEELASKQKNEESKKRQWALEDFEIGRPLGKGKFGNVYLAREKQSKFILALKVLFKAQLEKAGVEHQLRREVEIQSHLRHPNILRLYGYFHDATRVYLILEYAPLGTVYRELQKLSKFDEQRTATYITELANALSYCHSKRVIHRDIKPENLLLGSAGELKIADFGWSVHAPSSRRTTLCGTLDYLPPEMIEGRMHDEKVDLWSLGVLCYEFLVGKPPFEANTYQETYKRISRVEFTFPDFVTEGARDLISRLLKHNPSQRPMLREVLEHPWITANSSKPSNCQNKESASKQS
Experimental: as §1, §2, §3, §4

ABL = biological target: T7, ABL (Homo sapiens, UniProt P00519); experiment: Desktop Profiler kinase panel, ABL; details: 10 micromolar concentration of the compound; read-out: Percent Inhibition ABL
T7 construct: purchased Caliper Life Sciences
T7 sequence (P00519 whole entry, species assumed): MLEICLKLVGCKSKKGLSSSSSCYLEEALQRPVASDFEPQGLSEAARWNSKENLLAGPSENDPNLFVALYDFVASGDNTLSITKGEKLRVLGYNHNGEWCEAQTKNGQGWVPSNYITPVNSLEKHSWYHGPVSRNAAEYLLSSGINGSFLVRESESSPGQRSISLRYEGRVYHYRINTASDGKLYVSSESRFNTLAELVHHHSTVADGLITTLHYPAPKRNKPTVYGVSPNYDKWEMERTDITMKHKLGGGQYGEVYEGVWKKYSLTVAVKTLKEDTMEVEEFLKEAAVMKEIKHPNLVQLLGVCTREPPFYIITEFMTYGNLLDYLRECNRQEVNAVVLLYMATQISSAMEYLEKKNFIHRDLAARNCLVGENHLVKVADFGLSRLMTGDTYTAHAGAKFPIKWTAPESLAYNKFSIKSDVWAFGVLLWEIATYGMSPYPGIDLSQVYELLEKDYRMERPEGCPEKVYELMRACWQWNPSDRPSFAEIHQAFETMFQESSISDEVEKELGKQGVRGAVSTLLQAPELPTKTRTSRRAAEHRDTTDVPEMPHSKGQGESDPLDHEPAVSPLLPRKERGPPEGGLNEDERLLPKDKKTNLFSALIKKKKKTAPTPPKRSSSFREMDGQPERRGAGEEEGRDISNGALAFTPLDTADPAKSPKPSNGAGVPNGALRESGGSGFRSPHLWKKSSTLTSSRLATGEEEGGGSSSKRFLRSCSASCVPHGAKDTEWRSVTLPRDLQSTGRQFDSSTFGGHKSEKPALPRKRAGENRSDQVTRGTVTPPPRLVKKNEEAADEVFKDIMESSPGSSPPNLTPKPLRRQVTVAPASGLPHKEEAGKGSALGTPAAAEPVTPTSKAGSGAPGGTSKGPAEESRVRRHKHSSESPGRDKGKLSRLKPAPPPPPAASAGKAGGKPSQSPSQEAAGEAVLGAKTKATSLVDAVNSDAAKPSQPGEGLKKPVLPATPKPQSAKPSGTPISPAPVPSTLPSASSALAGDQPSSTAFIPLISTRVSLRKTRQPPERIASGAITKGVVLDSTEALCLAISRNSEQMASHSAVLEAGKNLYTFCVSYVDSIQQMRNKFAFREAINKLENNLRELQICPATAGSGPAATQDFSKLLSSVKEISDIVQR
Experimental: as §1, §2, §3, §4

MSK1 = biological target: T8, MSK1 (Homo sapiens, UniProt O75582); experiment: Desktop Profiler kinase panel, MSK1; details: 10 micromolar concentration of the compound; read-out: Percent Inhibition MSK1
T8 construct: purchased Caliper Life Sciences
T8 sequence (O75582 whole entry, species assumed): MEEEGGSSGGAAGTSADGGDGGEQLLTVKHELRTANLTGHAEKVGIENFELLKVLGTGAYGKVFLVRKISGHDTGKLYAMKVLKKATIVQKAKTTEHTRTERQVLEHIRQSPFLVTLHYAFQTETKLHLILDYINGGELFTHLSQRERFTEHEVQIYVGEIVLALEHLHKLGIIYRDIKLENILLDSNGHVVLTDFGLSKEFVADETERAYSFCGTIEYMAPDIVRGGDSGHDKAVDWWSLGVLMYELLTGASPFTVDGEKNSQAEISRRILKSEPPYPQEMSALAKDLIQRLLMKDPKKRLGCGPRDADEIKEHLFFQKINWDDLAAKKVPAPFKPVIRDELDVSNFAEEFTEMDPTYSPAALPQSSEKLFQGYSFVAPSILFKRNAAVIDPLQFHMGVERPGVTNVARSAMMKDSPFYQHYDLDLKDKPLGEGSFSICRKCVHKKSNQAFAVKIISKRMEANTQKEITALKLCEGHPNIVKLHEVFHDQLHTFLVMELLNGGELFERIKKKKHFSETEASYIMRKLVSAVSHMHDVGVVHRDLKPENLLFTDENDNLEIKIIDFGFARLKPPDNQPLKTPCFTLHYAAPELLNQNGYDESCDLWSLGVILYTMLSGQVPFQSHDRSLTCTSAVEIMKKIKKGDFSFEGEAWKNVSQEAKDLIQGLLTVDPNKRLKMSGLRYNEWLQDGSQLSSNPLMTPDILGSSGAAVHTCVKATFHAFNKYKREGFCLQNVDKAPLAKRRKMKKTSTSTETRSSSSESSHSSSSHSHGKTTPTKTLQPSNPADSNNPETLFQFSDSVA
Experimental: as §1, §2
as §3, with “respectively). […]” for “respectively).”

T1 sequence (P49841 whole entry, species assumed): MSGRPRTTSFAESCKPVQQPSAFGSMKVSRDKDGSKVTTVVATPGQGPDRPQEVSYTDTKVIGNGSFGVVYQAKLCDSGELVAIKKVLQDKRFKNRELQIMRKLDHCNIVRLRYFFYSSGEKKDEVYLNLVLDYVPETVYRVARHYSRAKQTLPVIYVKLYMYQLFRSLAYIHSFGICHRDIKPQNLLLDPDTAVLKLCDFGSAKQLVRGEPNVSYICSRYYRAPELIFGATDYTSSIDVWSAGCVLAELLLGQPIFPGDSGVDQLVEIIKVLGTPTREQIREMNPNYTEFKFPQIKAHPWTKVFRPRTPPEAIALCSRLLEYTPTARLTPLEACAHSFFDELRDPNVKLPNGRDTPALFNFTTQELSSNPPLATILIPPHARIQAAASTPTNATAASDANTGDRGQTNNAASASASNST

Row | inhibition at 10 µM (GSK3b) [%] | inhibition at 10 µM (AKT2) [%] | inhibition at 10 µM (FYN) [%] | inhibition at 10 µM (PKD2) [%] | inhibition at 10 µM (PKA) [%] | inhibition at 10 µM (AurA) [%] | inhibition at 10 µM (ABL) [%] | inhibition at 10 µM (MSK1) [%] | SMILES
1 | > 90 | > 90 | > 90 | > 90 | > 90 | > 90 | > 90 | > 90 | CC(=O)Nc1ccc(Oc2ccc3c(=O)[nH]c4ncccc4c3c2)cc1 [Example 81, N-[4-(6-Oxo-5,6-dihydro-benzo[c][1,8]naphthyridin-9-yloxy)-phenyl]-acetamide]
2 | 70 to 90 | 50 to 70 | > 90 | 50 to 70 | 70 to 90 | > 90 | 70 to 90 | 50 to 70 | NC(=O)c1ccc(Oc2ccc3c(=O)[nH]c4ncccc4c3c2)cc1 [Example 82]
3 | 70 to 90 | > 90 | 70 to 90 | > 90 | > 90 | > 90 | > 90 | 70 to 90 | O=c1[nH]c2ncccc2c2cc(Nc3cccc(F)c3)ccc12 [Example 31, 9-(3-Fluoro-phenylamino)-5H-benzo[c][1,8]naphthyridin-6-one]
